In ChEMBL document CHEMBL5291721, “A preclinical secondary pharmacology resource illuminates target-adverse drug reaction associations of marketed drugs” (Nat Commun, 2023):

Legend:
Androgen receptor = target: T1, Androgen receptor (Rattus norvegicus, UniProt P15207)
T1 sequence (P15207 whole entry): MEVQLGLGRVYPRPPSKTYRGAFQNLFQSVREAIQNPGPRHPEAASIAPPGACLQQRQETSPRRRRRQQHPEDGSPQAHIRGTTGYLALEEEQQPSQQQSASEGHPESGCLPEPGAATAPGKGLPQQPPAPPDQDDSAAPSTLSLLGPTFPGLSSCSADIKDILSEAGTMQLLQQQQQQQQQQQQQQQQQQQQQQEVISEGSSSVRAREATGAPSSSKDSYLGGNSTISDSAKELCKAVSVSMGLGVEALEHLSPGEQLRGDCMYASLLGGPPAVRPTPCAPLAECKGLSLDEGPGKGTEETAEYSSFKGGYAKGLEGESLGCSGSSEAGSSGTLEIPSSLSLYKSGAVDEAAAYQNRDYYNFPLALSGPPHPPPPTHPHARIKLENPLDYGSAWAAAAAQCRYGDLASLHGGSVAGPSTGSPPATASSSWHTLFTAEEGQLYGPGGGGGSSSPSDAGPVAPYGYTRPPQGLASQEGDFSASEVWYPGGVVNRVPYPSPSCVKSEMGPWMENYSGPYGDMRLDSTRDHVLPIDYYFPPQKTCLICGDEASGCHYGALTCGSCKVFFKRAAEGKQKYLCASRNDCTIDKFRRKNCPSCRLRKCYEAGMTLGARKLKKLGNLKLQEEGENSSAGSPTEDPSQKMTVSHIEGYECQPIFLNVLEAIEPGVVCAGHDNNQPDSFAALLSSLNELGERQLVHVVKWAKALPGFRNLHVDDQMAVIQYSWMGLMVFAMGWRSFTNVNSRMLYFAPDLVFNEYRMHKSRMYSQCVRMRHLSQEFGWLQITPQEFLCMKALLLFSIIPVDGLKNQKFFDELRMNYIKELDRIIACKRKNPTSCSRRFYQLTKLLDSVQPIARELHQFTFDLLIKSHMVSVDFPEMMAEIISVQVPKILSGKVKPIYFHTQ

[1] = target: 5-hydroxytryptamine receptor 2B (Homo sapiens, UniProt P41595)
Chain of 5-hydroxytryptamine receptor 2B (P41595 whole entry): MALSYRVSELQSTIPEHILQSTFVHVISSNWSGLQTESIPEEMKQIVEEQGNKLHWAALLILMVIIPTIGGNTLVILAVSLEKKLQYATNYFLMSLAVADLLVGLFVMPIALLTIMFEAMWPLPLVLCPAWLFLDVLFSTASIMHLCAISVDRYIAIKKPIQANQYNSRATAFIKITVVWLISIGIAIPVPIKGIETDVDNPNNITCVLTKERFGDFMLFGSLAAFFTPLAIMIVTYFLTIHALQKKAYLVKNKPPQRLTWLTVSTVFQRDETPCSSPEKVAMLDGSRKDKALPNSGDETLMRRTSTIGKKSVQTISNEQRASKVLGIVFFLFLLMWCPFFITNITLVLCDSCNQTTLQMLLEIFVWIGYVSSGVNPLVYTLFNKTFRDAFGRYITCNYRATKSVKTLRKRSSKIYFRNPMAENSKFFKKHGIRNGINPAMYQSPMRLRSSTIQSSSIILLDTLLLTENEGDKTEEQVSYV

[2] = target: Rod cGMP-specific 3',5'-cyclic phosphodiesterase subunit alpha (Homo sapiens, UniProt P16499); format: functional
Chain of Rod cGMP-specific 3',5'-cyclic phosphodiesterase subunit alpha (P16499 whole entry): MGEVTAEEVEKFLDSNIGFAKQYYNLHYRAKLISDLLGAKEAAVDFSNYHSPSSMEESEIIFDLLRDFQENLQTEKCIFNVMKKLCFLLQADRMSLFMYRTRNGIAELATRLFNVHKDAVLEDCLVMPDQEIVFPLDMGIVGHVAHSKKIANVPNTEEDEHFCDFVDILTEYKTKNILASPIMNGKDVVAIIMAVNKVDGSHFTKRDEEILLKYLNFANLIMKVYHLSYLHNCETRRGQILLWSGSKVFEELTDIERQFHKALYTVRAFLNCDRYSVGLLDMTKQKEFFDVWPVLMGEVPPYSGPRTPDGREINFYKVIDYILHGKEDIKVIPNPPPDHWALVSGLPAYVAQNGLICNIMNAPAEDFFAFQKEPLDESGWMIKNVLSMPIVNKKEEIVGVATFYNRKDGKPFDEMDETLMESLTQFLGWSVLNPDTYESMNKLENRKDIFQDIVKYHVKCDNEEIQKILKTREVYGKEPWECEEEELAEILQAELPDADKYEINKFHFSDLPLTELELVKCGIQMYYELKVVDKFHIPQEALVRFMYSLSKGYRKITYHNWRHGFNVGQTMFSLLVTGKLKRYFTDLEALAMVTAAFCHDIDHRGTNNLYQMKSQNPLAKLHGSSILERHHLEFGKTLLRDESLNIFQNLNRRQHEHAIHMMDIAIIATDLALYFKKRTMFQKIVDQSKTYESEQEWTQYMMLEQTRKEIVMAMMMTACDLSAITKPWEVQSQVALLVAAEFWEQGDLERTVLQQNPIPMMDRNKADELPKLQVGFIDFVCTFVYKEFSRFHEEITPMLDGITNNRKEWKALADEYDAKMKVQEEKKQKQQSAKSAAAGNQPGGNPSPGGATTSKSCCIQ

D(1B) dopamine receptor = D(1B) dopamine receptor (Homo sapiens, UniProt P21918)
Chain of D(1B) dopamine receptor (P21918 whole entry): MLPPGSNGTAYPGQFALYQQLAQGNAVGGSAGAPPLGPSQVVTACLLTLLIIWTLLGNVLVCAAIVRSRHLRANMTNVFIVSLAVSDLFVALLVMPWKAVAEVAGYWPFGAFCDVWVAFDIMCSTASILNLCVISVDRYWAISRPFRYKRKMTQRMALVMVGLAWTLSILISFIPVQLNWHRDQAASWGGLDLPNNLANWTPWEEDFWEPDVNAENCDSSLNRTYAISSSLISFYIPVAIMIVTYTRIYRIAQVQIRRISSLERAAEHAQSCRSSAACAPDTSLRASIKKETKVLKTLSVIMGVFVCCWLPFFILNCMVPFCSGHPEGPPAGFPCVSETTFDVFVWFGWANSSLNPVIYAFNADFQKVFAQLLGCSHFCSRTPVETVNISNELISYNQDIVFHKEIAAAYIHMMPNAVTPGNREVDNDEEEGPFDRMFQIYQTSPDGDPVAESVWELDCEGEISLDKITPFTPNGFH

[3] = target: T2, Retinoic acid receptor gamma (Homo sapiens, UniProt P13631); format: functional, cell-based
T2 sequence (P13631 whole entry): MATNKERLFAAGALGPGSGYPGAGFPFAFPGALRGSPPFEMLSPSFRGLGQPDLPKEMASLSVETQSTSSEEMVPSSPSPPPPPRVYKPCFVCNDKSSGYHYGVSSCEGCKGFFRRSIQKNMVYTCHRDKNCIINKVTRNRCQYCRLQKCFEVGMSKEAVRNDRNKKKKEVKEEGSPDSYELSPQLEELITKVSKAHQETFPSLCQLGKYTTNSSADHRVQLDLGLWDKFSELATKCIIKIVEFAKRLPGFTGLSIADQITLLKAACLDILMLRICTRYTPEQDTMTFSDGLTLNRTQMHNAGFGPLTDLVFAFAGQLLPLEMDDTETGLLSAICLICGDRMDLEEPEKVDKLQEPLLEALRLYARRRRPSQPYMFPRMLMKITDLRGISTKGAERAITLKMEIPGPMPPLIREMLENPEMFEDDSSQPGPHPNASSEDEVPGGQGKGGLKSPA

[4] = target: T3, Retinoic acid receptor beta (Homo sapiens, UniProt P10826); format: functional, cell-based
T3 sequence (P10826 whole entry): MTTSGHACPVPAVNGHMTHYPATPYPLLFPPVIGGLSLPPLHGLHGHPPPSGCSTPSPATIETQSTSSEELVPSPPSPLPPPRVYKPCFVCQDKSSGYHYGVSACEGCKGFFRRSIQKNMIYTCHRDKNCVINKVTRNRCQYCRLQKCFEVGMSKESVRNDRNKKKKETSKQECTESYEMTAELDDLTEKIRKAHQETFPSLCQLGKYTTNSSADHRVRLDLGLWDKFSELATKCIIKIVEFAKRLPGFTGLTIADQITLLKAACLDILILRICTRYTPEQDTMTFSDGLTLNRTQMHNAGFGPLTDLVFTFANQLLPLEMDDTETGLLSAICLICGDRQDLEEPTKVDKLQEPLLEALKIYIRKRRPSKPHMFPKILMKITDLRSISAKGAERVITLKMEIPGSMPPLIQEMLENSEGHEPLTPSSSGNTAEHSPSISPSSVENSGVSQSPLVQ

[5] = target: T4, Oxysterols receptor LXR-alpha (Homo sapiens, UniProt Q13133); format: functional
T4 sequence (Q13133 whole entry): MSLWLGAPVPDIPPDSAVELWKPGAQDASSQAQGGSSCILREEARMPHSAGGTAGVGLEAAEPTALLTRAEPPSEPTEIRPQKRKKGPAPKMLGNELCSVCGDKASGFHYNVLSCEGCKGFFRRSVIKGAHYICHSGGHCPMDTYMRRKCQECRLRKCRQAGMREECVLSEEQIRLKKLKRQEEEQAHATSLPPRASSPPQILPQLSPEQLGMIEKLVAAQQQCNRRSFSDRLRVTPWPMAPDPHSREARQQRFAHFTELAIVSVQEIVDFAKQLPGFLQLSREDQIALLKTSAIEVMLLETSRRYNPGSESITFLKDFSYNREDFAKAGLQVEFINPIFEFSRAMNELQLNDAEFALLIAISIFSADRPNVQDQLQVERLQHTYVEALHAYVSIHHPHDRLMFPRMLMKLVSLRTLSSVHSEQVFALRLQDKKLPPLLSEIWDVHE

Bile acid receptor = target: T5, Bile acid receptor (Homo sapiens, UniProt Q96RI1); format: functional
T5 sequence (Q96RI1 whole entry): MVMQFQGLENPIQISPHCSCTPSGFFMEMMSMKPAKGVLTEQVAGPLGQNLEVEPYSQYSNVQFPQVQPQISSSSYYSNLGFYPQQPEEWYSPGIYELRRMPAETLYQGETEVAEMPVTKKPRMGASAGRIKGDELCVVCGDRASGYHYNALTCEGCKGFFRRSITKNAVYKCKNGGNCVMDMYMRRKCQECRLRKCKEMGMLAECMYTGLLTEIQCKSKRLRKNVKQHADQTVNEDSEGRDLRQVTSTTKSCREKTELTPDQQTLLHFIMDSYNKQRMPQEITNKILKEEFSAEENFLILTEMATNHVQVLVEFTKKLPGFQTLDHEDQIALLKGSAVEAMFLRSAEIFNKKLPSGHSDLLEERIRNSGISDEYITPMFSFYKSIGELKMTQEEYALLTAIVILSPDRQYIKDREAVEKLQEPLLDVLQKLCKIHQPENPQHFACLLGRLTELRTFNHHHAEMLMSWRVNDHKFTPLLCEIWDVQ
Also: assay procedure not described here.

SMILES	AC50 (Androgen receptor) [µM]	AC50 [2] [µM]	AC50 (D(1B) dopamine receptor) [µM]	AC50 [3] [µM]	AC50 [4] [µM]	AC50 [5] [µM]	AC50 (Bile acid receptor) [µM]	also measured
CCc1oc2ccccc2c1C(=O)c1cc(Br)c(O)c(Br)c1 [BENZBROMARONE]	> 10	–	–	–	–	–	–	–
CC[C@@H](CO)NC(=O)[C@@H]1C=C2c3cccc4[nH]cc(c34)C[C@H]2N(C)C1 [METHYLERGONOVINE]	–	–	–	–	–	–	–	AC50 [1]: 0.0054 µM
[H]/N=C(\N/C(=N/[H])NCCCCCCNC(=N)NC(=N)Nc1ccc(Cl)cc1)Nc1ccc(Cl)cc1 [CHLORHEXIDINE]	> 30	–	–	–	–	–	–	–
Cc1cnc(NC(=O)C2=C(O)c3ccccc3S(=O)(=O)N2C)s1 [MELOXICAM]	–	> 10	> 10	–	–	–	–	–
O=C1CN2Cc3c(ccc(Cl)c3Cl)N=C2N1 [ANAGRELIDE]	> 30	–	–	–	–	–	–	–
CNC(=O)c1cc(Oc2ccc(NC(=O)Nc3ccc(Cl)c(C(F)(F)F)c3)c(F)c2)ccn1 [REGORAFENIB]	–	–	–	9	> 30	> 30	> 30	–
COC(=O)[C@H](c1ccccc1Cl)N1CCc2sccc2C1 [CLOPIDOGREL]	–	> 10	> 10	–	–	–	–	–
CCOc1cc(CC(=O)N[C@@H](CC(C)C)c2ccccc2N2CCCCC2)ccc1C(=O)O [REPAGLINIDE]	–	–	–	> 30	> 30	> 30	> 30	–
CN1C[C@H](C(=O)N[C@]2(C)O[C@@]3(O)[C@@H]4CCCN4C(=O)[C@H](Cc4ccccc4)N3C2=O)C[C@@H]2c3cccc4[nH]cc(c34)C[C@H]21 [DIHYDROERGOTAMINE]	–	–	–	–	–	–	–	AC50 [1]: 0.0444 µM
CCCN(CCC)CCc1cccc2c1CC(=O)N2 [ROPINIROLE]	–	–	–	–	–	–	–	AC50 [1]: 13.4 µM
CC(/C=C1\SC(=S)N(CC(=O)O)C1=O)=C\c1ccccc1	–	–	–	> 30	> 30	> 30	> 30	–
CC1(C)S[C@@H]2[C@H](NC(=O)[C@H](N)c3ccc(O)cc3)C(=O)N2[C@H]1C(=O)O [AMOXICILLIN]	> 30	> 10	> 10	9.1	> 30	19	> 30	–
CCCCNc1ccc(C(=O)OCCN(C)C)cc1 [TETRACAINE]	–	> 10	> 10	–	–	–	–	–
